PubChem BioAssay AID1963445 (Molecular Pharmacology Branch, DTP, NCI, 2024)
Several values for one entry are separate records, joined by “and”; a condition that tells them apart may be missing. Identical values can stand only once.

System: MCF7 complex spheroid growth, % test/control
Assay: Anticancer human tumor MCF7 cell line growth inhibition [Asc];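 further: spheroids exposed to compounds for 7 days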;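 on viability, T/C: 100% = DMSO vehicle control wells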
Conditions: for viability, T/C: stronger effect = lower value; active means viability on the fitted dose curve at most 10% of control; inactive means the rest
In short: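 Stromal components (HUVEC and hMSC) are co-assembled with the cancer cells into multicellular spheroids. Drugs are then added singly or paired, at concentrations falling by half-log increments from a clinically achievable maximum, capped at 10 microM without known Cmax.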

[1] = curve of first compound, second compound 0.00949 µM
[2] = curve of first compound, second compound 0.03 µM
[3] = curve of first compound, second compound 0.0949 µM
[4] = curve of first compound, second compound 0.3 µM
[5] = curve of first compound, second compound 0.949 µM
[6] = curve of first compound, second compound 3 µM
[7] = second compound 0.00949 µM, first compound 0.00316 µM
[8] = second compound 0.00949 µM, first compound 0.01 µM
[9] = second compound 0.00949 µM, first compound 0.0316 µM
[10] = second compound 0.00949 µM, first compound 0.1 µM
[11] = second compound 0.00949 µM, first compound 0.316 µM
[12] = second compound 0.00949 µM, first compound 1 µM
[13] = second compound 0.03 µM, first compound 0.00316 µM
[14] = second compound 0.03 µM, first compound 0.01 µM
[15] = second compound 0.03 µM, first compound 0.0316 µM
[16] = second compound 0.03 µM, first compound 0.1 µM
[17] = second compound 0.03 µM, first compound 0.316 µM
[18] = second compound 0.03 µM, first compound 1 µM
[19] = second compound 0.0949 µM, first compound 0.00316 µM
[20] = second compound 0.0949 µM, first compound 0.01 µM
[21] = second compound 0.0949 µM, first compound 0.0316 µM
[22] = second compound 0.0949 µM, first compound 0.1 µM
[23] = second compound 0.0949 µM, first compound 0.316 µM
[24] = second compound 0.0949 µM, first compound 1 µM
[25] = second compound 0.3 µM, first compound 0.00316 µM
[26] = second compound 0.3 µM, first compound 0.01 µM
[27] = second compound 0.3 µM, first compound 0.0316 µM
[28] = second compound 0.3 µM, first compound 0.1 µM
[29] = second compound 0.3 µM, first compound 0.316 µM
[30] = second compound 0.3 µM, first compound 1 µM
[31] = second compound 0.949 µM, first compound 0.00316 µM
[32] = second compound 0.949 µM, first compound 0.01 µM
[33] = second compound 0.949 µM, first compound 0.0316 µM
[34] = second compound 0.949 µM, first compound 0.1 µM
[35] = second compound 0.949 µM, first compound 0.316 µM
[36] = second compound 0.949 µM, first compound 1 µM
[37] = second compound 3 µM, first compound 0.00316 µM
[38] = second compound 3 µM, first compound 0.01 µM
[39] = second compound 3 µM, first compound 0.0316 µM
[40] = second compound 3 µM, first compound 0.1 µM
[41] = second compound 3 µM, first compound 0.316 µM
[42] = second compound 3 µM, first compound 1 µM

COc1c(OCCCN2CCOCC2)ccc2c3n(c(=NC(=O)c4cnc(N)nc4)nc12)CCN3 + CCN1C(C(=O)NC23CCC(C(=O)O)(CC2)CC3)C(c2cccc(Cl)c2F)C2(C(=O)Nc3cc(Cl)ccc32)C12CCCCC2
48.4 nM: IC50 [1]
inactive: viability, T/C [7] 98.8% | viability, T/C [8] 70% | viability, T/C [9] 54.6% | viability, T/C [10] 49% | viability, T/C [11] 14.4% | viability, T/C [13] 78.7% | viability, T/C [14] 77.8% | viability, T/C [15] 56.1% | viability, T/C [16] 29% | viability, T/C [17] 7.5% | viability, T/C [19] 47.8% | viability, T/C [20] 50.3% | viability, T/C [21] 36.6% | viability, T/C [22] 18.4% | viability, T/C [25] 26.4% | viability, T/C [26] 21.5% | viability, T/C [27] 12.6% | viability, T/C [31] 17.9%
active: viability, T/C [12] 9.39% | viability, T/C [18] 9% | viability, T/C [23] 8.59% | viability, T/C [24] 8.82% | viability, T/C [28] 4.54% | viability, T/C [29] 7.49% | viability, T/C [30] 8.96% | viability, T/C [32] 10.1% | viability, T/C [33] 4.6% | viability, T/C [34] 6.32% | viability, T/C [35] 8.83% | viability, T/C [36] 8.95% | viability, T/C [37] 9.35% | viability, T/C [38] 5.25% | viability, T/C [39] 6.94% | viability, T/C [40] 6.59% | viability, T/C [41] 9.64% | viability, T/C [42] 10%
42.4 nM: IC50 [2]
< 3.16 nM: IC50 [3] | IC50 [4] | IC50 [5] | IC50 [6]

NC1CCC(NC2CC2c2ccccc2)CC1 (stereo not drawn) + CCN1C(C(=O)NC23CCC(C(=O)O)(CC2)CC3)C(c2cccc(Cl)c2F)C2(C(=O)Nc3cc(Cl)ccc32)C12CCCCC2
> 100 nM: IC50 [1] | IC50 [2] | IC50 [3]
< 0.316 nM: IC50 [4] | IC50 [5] | IC50 [6]
inactive: viability, T/C (second compound 0.00949 µM, first compound 0.000316 µM) 131% | viability, T/C (second compound 0.00949 µM, first compound 0.001 µM) 116% | viability, T/C [7] 131% | viability, T/C [8] 154% | viability, T/C [9] 126% | viability, T/C [10] 127% | viability, T/C (second compound 0.03 µM, first compound 0.000316 µM) 108% | viability, T/C (second compound 0.03 µM, first compound 0.001 µM) 113% | viability, T/C [13] 123% | viability, T/C [14] 101% | viability, T/C [15] 107% | viability, T/C [16] 74.8% | viability, T/C (second compound 0.0949 µM, first compound 0.000316 µM) 65.9% | viability, T/C (second compound 0.0949 µM, first compound 0.001 µM) 57.9% | viability, T/C [19] 43.3% | viability, T/C [20] 51.7% | viability, T/C [21] 58.1% | viability, T/C [22] 56.8% | viability, T/C (second compound 0.3 µM, first compound 0.000316 µM) 39.4% | viability, T/C (second compound 0.3 µM, first compound 0.001 µM) 38.8% | viability, T/C [25] 43.8% | viability, T/C [26] 40% | viability, T/C [27] 34.1% | viability, T/C [28] 43% | viability, T/C (second compound 0.949 µM, first compound 0.000316 µM) 30.3% | viability, T/C (second compound 0.949 µM, first compound 0.001 µM) 26.9% | viability, T/C [31] 29.1% | viability, T/C [32] 25.7% | viability, T/C [33] 29.1% | viability, T/C [34] 23.8% | viability, T/C (second compound 3 µM, first compound 0.000316 µM) 18.3% | viability, T/C (second compound 3 µM, first compound 0.001 µM) 18.6% | viability, T/C [37] 19.9% | viability, T/C [38] 15.5% | viability, T/C [39] 16.5% | viability, T/C [40] 19.6%

NC1CCC(NC2CC2c2ccccc2)CC1 (stereo not drawn)
> 100 nM: IC50 (curve of compound)
inactive: viability, T/C (compound 0.000316 µM) 89.7% and 112% and 107% | viability, T/C (compound 0.001 µM) 115% and 132% and 136% | viability, T/C (compound 0.00316 µM) 128% and 133% and 125% | viability, T/C (compound 0.01 µM) 129% and 106% and 132% | viability, T/C (compound 0.0316 µM) 136% and 104% and 108% | viability, T/C (compound 0.1 µM) 102% and 147% and 137%

C=C(F)C(=O)N1CCN(c2nc(OCC3CCCN3C)nc3c2CCN(c2cccc4cccc(Cl)c24)C3)CC1CC#N (stereo not drawn) + CCN1C(C(=O)NC23CCC(C(=O)O)(CC2)CC3)C(c2cccc(Cl)c2F)C2(C(=O)Nc3cc(Cl)ccc32)C12CCCCC2
active: viability, T/C (second compound 0.00949 µM, first compound 10 µM) 0.16% | viability, T/C (second compound 0.03 µM, first compound 10 µM) 0.23% | viability, T/C (second compound 0.0949 µM, first compound 10 µM) 0.14% | viability, T/C (second compound 0.3 µM, first compound 10 µM) 0.24% | viability, T/C (second compound 0.949 µM, first compound 3.16 µM) 2.09% | viability, T/C (second compound 0.949 µM, first compound 10 µM) 0.2% | viability, T/C [42] 11.8% | viability, T/C (second compound 3 µM, first compound 3.16 µM) 2.7% | viability, T/C (second compound 3 µM, first compound 10 µM) 0.44%
< 31.6 nM: IC50 [4] | IC50 [5] | IC50 [6]
3270 nM: IC50 [2]
1180 nM: IC50 [3]
3140 nM: IC50 [1]
inactive: viability, T/C [9] 103% | viability, T/C [10] 115% | viability, T/C [11] 109% | viability, T/C [12] 89.8% | viability, T/C (second compound 0.00949 µM, first compound 3.16 µM) 50.4% | viability, T/C [15] 104% | viability, T/C [16] 77.1% | viability, T/C [17] 109% | viability, T/C [18] 69.3% | viability, T/C (second compound 0.03 µM, first compound 3.16 µM) 53.8% | viability, T/C [21] 50.4% | viability, T/C [22] 52.5% | viability, T/C [23] 50.5% | viability, T/C [24] 57.5% | viability, T/C (second compound 0.0949 µM, first compound 3.16 µM) 33.6% | viability, T/C [27] 30.5% | viability, T/C [28] 28% | viability, T/C [29] 34.2% | viability, T/C [30] 34.8% | viability, T/C (second compound 0.3 µM, first compound 3.16 µM) 10.5% | viability, T/C [33] 20.6% | viability, T/C [34] 20.7% | viability, T/C [35] 28.5% | viability, T/C [36] 17.1% | viability, T/C [39] 15.2% | viability, T/C [40] 15.4% | viability, T/C [41] 14.1%
